Measured values from the supplement of paper PMC4862054.
Values joined by “and” are separate entries in the source; they are usually repeats but may differ in a detail not shown here. Equal values may be shown once.

What was measured:
Conditions in all cases: incubation time: 72 h
[1] = test system: HCC1143; assay: normalised viability (% of control), CellTiter-Blue; higher = more viable cells (about 100 = DMSO control)
Experimental: (§1)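 DSRT, CellTiter-Blue viability, 72 h incubation. Signal is normalised to DMSO and benzethonium chloride controls. Value is the normalised response at dose 3.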

[2] = test system: MDA-MB-453; assay: as above
Experimental: as §1

[3] = test system: BT-549; assay: as above
Experimental: as §1

[4] = test system: MDA-MB-468; assay: as above
Experimental: as §1

[5] = test system: BT-474; assay: as above
Experimental: as §1

[6] = test system: CAL-51; assay: as above
Experimental: as §1

[7] = test system: Hs578T; assay: as above
Experimental: as §1

[8] = test system: HCC1937; assay: as above
Experimental: as §1

[9] = test system: CAL-85-1; assay: as above
Experimental: as §1

[10] = test system: HCC1599; assay: as above
Experimental: as §1

[11] = test system: CAL-148; assay: as above
Experimental: as §1

[12] = test system: HDQ-P1; assay: as above
Experimental: as §1

[13] = test system: MDA-MB-436; assay: as above
Experimental: as §1

[14] = test system: SK-BR-3; assay: as above
Experimental: as §1

[15] = test system: MFM-223; assay: as above
Experimental: as §1

[16] = test system: CAL-120; assay: as above
Experimental: as §1

[17] = test system: MDA-MB-231; assay: as above
Experimental: as §1

[18] = test system: DU-4475; assay: as above
Experimental: as §1

[19] = test system: CAL-120; assay: normalised viability (% of control), CellTiter-Blue; higher = more viable cells (about 100 = DMSO control); remark: listed apart in the source
Summary of the method: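 Each value is normalised viability at a single listed concentration of the series. Breast cancer cell lines in 384-well plates were incubated 72 h with compound and read by CellTiter-Blue fluorescence at 560/590 nm, with vehicle set to 100 and a positive kill control to 0 on every plate.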

[20] = test system: MDA-MB-453; assay: drug sensitivity score (DSS), CellTox Green (DSS (AUC-based score)); higher = stronger drug effect (viability inhibition or cytotoxicity); extreme values may be limits of the assay
Summary of the method: (§2)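 The drug sensitivity score reflects the area under a fitted dose-response curve. To obtain it, breast cancer cells in 20 µl suspension were seeded into 384-well plates containing compound at 5 concentrations, 10-fold apart over a compound-specific 10,000-fold range, and incubated 72 h. CellTox Green fluorescence (485/520 nm) was read first and CellTiter-Glo luminescence second, after 10 min at room temperature. Each plate was normalised to 0.1 % DMSO and a positive kill control.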

[21] = test system: BT-549; assay: as above
Summary of the method: as §2

[22] = test system: CAL-51; assay: as above
Summary of the method: as §2

[23] = test system: Hs578T; assay: as above
Summary of the method: as §2

[24] = test system: HCC1599; assay: as above
Summary of the method: as §2

[25] = test system: CAL-148; assay: as above
Summary of the method: as §2

[26] = test system: HDQ-P1; assay: as above
Summary of the method: as §2

[27] = test system: MFM-223; assay: as above
Summary of the method: as §2

[28] = test system: MDA-MB-231; assay: as above
Summary of the method: as §2

[29] = test system: DU-4475; assay: as above
Summary of the method: as §2

Compound	normalised viability ([1]; 100 nM)	normalised viability ([2]; 10 nM)	normalised viability ([3]; 100 nM)	normalised viability ([4]; 100 nM)	normalised viability ([5]; 100 nM)	normalised viability ([6]; 10 nM)	normalised viability ([7]; 100 nM)	normalised viability ([8]; 100 nM)	normalised viability ([9]; 10 nM)	normalised viability ([19]; 1000 nM)	drug sensitivity score [20]	drug sensitivity score [21]	drug sensitivity score [22]	drug sensitivity score [23]	drug sensitivity score [24]	drug sensitivity score [25]	drug sensitivity score [26]	drug sensitivity score [27]	drug sensitivity score [28]	drug sensitivity score [29]	other results
CN(Cc1cnc2nc(N)nc(N)c2n1)c1ccc(C(=O)N[C@@H](CCC(=O)O)C(=O)O)cc1 [Methotrexate]	69.3%	122%	87.2%	46.3%	124%	107%	78.6%	96.2%	104%	46.9%	0.671	0	0	7.51	0	0	0	0	0	0	normalised viability ([10]; 100 nM): 106%; normalised viability ([11]; 10 nM): 105%; normalised viability ([12]; 10 nM): 95.7%; normalised viability ([13]; 100 nM): 80.7%; normalised viability ([14]; 100 nM): 49%; normalised viability ([15]; 100 nM): 98.2%; normalised viability ([16]; 100 nM): 50.4%; normalised viability ([17]; 100 nM): 85.9%; normalised viability ([18]; 10 nM): 122%; normalised viability ([19]; 10 nM): 85.2%; normalised viability ([19]; 10000 nM): 55%
CO[C@@]12[C@H](COC(N)=O)C3=C(C(=O)C(C)=C(N)C3=O)N1C[C@@H]1N[C@@H]12 [Mitomycin C]	83.7%	87.6%	74.4%	92%	127%	108%	97.1%	69.2%	104%	91.5%	0	0	17.2	0.971	0	1.72	0.392	1.79	0	0	normalised viability ([10]; 100 nM): 108%; normalised viability ([11]; 10 nM): 101%; normalised viability ([12]; 10 nM): 103%; normalised viability ([13]; 100 nM): 96.5%; normalised viability ([14]; 100 nM): 91.9%; normalised viability ([15]; 100 nM): 89.1%; normalised viability ([16]; 100 nM): 93.8%; normalised viability ([17]; 100 nM): 107%; normalised viability ([18]; 10 nM): 103%; normalised viability ([19]; 10 nM): 92.4%; normalised viability ([19]; 10000 nM): 40.4%
CCNC(=O)c1noc(-c2cc(C(C)C)c(O)cc2O)c1-c1ccc(CN2CCOCC2)cc1 [NVP-AUY922]										17.1%	0.086	0	6.99	6.88	0	12.7	6	0	12.6	5.69	normalised viability ([1]; 10 nM): 100%; normalised viability ([2]; 1 nM): 119%; normalised viability ([3]; 10 nM): 42.2%; normalised viability ([4]; 10 nM): 51.6%; normalised viability ([5]; 10 nM): 86.1%; normalised viability ([6]; 1 nM): 102%; normalised viability ([7]; 10 nM): 37.3%; normalised viability ([8]; 10 nM): 37.8%; normalised viability ([9]; 1 nM): 96%; normalised viability ([10]; 10 nM): 112%; normalised viability ([11]; 1 nM): 103%; normalised viability ([12]; 1 nM): 132%; normalised viability ([13]; 10 nM): 58.5%; normalised viability ([14]; 10 nM): 34.9%; normalised viability ([15]; 10 nM): 41.1%; normalised viability ([16]; 10 nM): 46.6%; normalised viability ([17]; 10 nM): 56.5%; normalised viability ([18]; 1 nM): 115%; normalised viability ([19]; 1 nM): 101%; normalised viability ([19]; 100 nM): 18.9%
CC1(C)CCC(c2ccc(Cl)cc2)=C(CN2CCN(c3ccc(C(=O)NS(=O)(=O)c4ccc(N[C@H](CCN5CCOCC5)CSc5ccccc5)c(S(=O)(=O)C(F)(F)F)c4)cc3)CC2)C1 [Navitoclax]	75.3%	84.3%	97.2%	84.2%	97.3%	105%	78.2%	96.3%	88.2%	64.7%	0	0	8.56	0	0	4.49	17.2	1.23	21.5	0	normalised viability ([10]; 100 nM): 93.5%; normalised viability ([11]; 10 nM): 87%; normalised viability ([12]; 10 nM): 87.4%; normalised viability ([13]; 100 nM): 89.2%; normalised viability ([14]; 100 nM): 58.8%; normalised viability ([15]; 100 nM): 75.5%; normalised viability ([16]; 100 nM): 61.3%; normalised viability ([17]; 100 nM): 71.9%; normalised viability ([18]; 10 nM): 86.9%; normalised viability ([19]; 10 nM): 69.9%; normalised viability ([19]; 10000 nM): 30.5%
Cc1cn(-c2cc(NC(=O)c3ccc(C)c(Nc4nccc(-c5cccnc5)n4)c3)cc(C(F)(F)F)c2)cn1 [Nilotinib]	94.3% and 91.8%	94% and 89%	95.6% and 88.2%	95.9% and 102%	104% and 102%	109% and 111%	78.3% and 89.4%	90.7% and 85.8%	93.2% and 92.5%	82.5% and 88%	0	1.71	0	0.546	0	0	0	0	3.55	0	normalised viability ([10]; 100 nM): 113% and 111%; normalised viability ([11]; 10 nM): 89.9% and 90.2%; normalised viability ([12]; 10 nM): 101% and 85.7%; normalised viability ([13]; 100 nM): 100% and 93.8%; normalised viability ([14]; 100 nM): 73.4% and 86.6%; normalised viability ([15]; 100 nM): 99.6% and 95.5%; normalised viability ([16]; 100 nM): 80.1% and 86.2%; normalised viability ([17]; 100 nM): 80.4% and 89.5%; normalised viability ([18]; 10 nM): 98.8% and 104%; normalised viability ([19]; 10 nM): 78% and 85.4%; normalised viability ([19]; 10000 nM): 90.2% and 92.4%
O=C(CCCCCCC(=O)Nc1ccccc1)NO [Vorinostat]	94.1% and 114%	115% and 97.7%	106% and 90%	104% and 97.3%	87.5% and 93.6%	107% and 93.5%	74.4% and 83.6%	98.6% and 84.2%	109% and 96.3%	65.1% and 68.3%	0	0.875	6.5	4.59	0	1.45	0	0	8.86	0	normalised viability ([10]; 100 nM): 101% and 111%; normalised viability ([11]; 10 nM): 88.3% and 92.3%; normalised viability ([12]; 10 nM): 113% and 89.2%; normalised viability ([13]; 100 nM): 107% and 95.4%; normalised viability ([14]; 100 nM): 59.4% and 81.4%; normalised viability ([15]; 100 nM): 103% and 97.1%; normalised viability ([16]; 100 nM): 79.2% and 93.3%; normalised viability ([17]; 100 nM): 97.9% and 86.1%; normalised viability ([18]; 10 nM): 109%; normalised viability ([19]; 10 nM): 92.3% and 99.7%; normalised viability ([19]; 10000 nM): 11.5% and 18.7%
